Source: patent publication US20210338658A1, “MACROLIDE COMPOUNDS AND THEIR USE IN LIVER STAGE MALARIA AND RELATED DISEASE” (The Johns Hopkins University, priority 2014, published 2021)
Entries after “also recorded” stand apart in the source; their conditions may differ.

How the values were obtained:
[1] = over 5,000 humans, single day dosing; cited from earlier work
P. berghei sporozoites [2] = assay: In vivo liver stage assay (mouse liver parasite load by real-time PCR); conditions: for effect on parasite growth in mice (in words): dose not given; for inhibitory effect on parasite proliferation in mice (in words): two doses 24 hours apart; for side effects in the mice: after two doses
Description: Approximately 10,000 sporozoites were inoculated by tail vein injection and mice were sacrificed 40 hours later, livers were harvested, placed in RNAzol and parasite levels determined by realtime PCR from cDNA from reverse transcription. Relative fluorescent units were compared to control to determine percent inhibition. Cethromycin (CET) was administered only once while the other drugs were given twice 24 hours apart from each dose. […] Error is standard error of mean of three mice with real time PCR performed in duplicate for transcript levels in each mouse.
Mice were kept in Johns Hopkins Bloomberg School of Public Health mouse facility according to the ACUC animal protocol number MO09H401. Six week old C57BL/6 mice weighing about 20-22 g were divided into groups of three. 12,000 P. berghei sporozoites in a 200 μL volume were injected into mice through tail veins. Two hours after injection, different dilutions of drugs in 100-200 μL volumes were delivered to mice by oral gavage using a plastic feeding tube. A second dose of drugs was given 24 hours after the first one to the mice that were on a daily dosing regimen. Approximately 40 hours post-infection, mice infected with P. berghei sporozoites were anesthetized by inhaling Metofane® and sacrificed for harvesting whole livers. Each mouse liver was immediately put into 10 mL of Trizol® Reagent and fully homogenized. After RNA isolation, the RNA was diluted to 100 ng/mL for reverse-transcription reactions. For a 30 μL reaction, the components were set up as: 3.5 μL of nuclease-free water, 3 μL of 10× Buffer II and 10 mM dNTPs, 6 μL of MgCl2 solution, 1.5 μL of 50 μM Random Hexamers, RNase Inhibitor and MuLV Reverse Transcriptase, 10 μL of RNA sample. cDNA products were stored at −20° C. For a 10 μL real-time quantitative PCR, the components were set up as: 0.2 μL of 10 μM forward and reverse primer 18s P. berghei, 5 μL of 2×SYBR Green PCR Master Mix, 1.6 μL of nuclease-free water, and 3 μL of cDNA sample. All test subjects were done in duplicates including positive and negative controls. When real-time PCR was finished, all data were baselined and normalized to the housekeeping gene before further analysis. The specific sequences of primers (The Core DNA Analysis Facility—JHU, Baltimore, Md.) were: 5′-[…]-3′ (SEQ ID NO: 1) and 5′-[…]-3′(SEQ ID NO: 2) for P. berghei ANKA 18s and 5′-[…]1TAGC-3′ (SEQ ID NO: 3) and 5′-[…]-3′ (SEQ ID NO: 4) for mouse HPRT.

P. berghei sporozoites [3] = assay: In vitro malaria liver stage assay (infected Hepa1-6 cells counted by anti-HSP70 immunofluorescence); format: cell-based, Plasmodium berghei; conditions: for reduction of parasite multiplication / growth in vitro: 10 μM
Description: 3A. […] Error is standard error of the mean of duplicate wells performed in biologic replicate. 3B. […] 50,000 Hepa1-6 cells were seeded in each well 24 hours prior to infection with 50,000 P. berghei sporozoites. The 2E6 anti-HSP70 antibody was used for immunofluorescent numeration of infected cells.
Drugs were purchased from either Sigma or Ambinter. In each chamber of 8-well LabTek tissue culture slides, 50,000 mouse hepatoma cells, Hepa1-6, were seeded one day before infection. Cells were normally cultured in DMEM supplemented with 10% FBS, 1× L-glutamine and 1× Pen-Strep at 37° C. and 5% CO2. Once incubated with P. berghei sporozoites, the culture medium supplement was changed to 2.5% FBS, 1× L-glutamine and 2× Pen-Strep. Before treatment with drugs, the cells were washed four times with DMEM containing 10× Pen-Strep and 5 ug/mL fungicide. After 24 hours, fresh culture medium containing drugs was added to each chamber. Approximately 42 hours post-infection, the growth medium was removed and 100% cold methanol was added for 15 minutes to fix the cells. After washing with sterile PBS, cells were incubated in PBS with 5% FBS for blocking. Then 2E6 anti-HSP70 antibody was diluted to 10 μg/mL in PBS with 5% FBS and added in a 200 μL volume to cells. One hour later, cells were washed with PBS and incubated with 10 μg/mL Alexafour 594 anti-mouse secondary antibody. In order to visualize hepatocytes, nuclear counterstain DAPI was incubated with cells for 5 minutes and then washed off. The plastic chambers and silicone gasket were removed and slide was fully dried before mounted and sealed with cover slides. When preparation was complete, slide was taken to the fluorescence microscope for examination. Representative areas were randomly selected from each chamber and the numbers of infected cells were counted for a similar number of microscopic fields. The level of inhibition was determined by comparing the average of each chamber containing treated cells with that of the controls.
Five compounds were procured while cethromycin was synthesized. Cethromycin was directly synthesized from erythromycin by substituting the cladinose sugar at C3 with a keto-group, attaching a cyclic carbamate group at C11-C12, and tethering the quinoline moiety to the C6 alcohol. We used the in vitro P. berghei ANKA model on mouse hepatoma cells, Hepa1-6. […] Quinoline, erythromycin and their combination were also tested to investigate the role the quinoline plays in the antimalarial activity of cethromycin. […] Due to limited synthesized amounts of cethromycin, only one dose was given to mice while other drugs and compounds were administered twice.

Plasmodium = conditions: reference molecules of the training set; read-out: liver stage inhibition; cited from earlier work

| SMILES | effect on parasite growth in mice (in words) (P. berghei sporozoites [2]; oral gavage) | parasite inhibition in vitro (in words) (P. berghei sporozoites [3]; Hepa1-6 cells) | inhibitory effect on parasite proliferation in mice (in words) (P. berghei sporozoites [2]; 50 mg/kg) | side effects in the mice (P. berghei sporozoites [2]; 50 mg/kg) | also measured |
| --- | --- | --- | --- | --- | --- |
| CC[C@H]1OC(=O)[C@H](C)C(=O)[C@H](C)[C@@H](O[C@@H]2O[C@H](C)C[C@H](N(C)C)[C@H]2O)[C@@](C)(OC/C=C/c2cnc3ccccc3c2)C[C@@H](C)C(=O)[C@H](C)[C@H]2NC(=O)O[C@@]21C [Cethromycin, (1R,2R,4R,6S,7R,8R,10R,13R,14S)-7-[(2S,3R,4S,6R)-4-(dimethylamino)-3-hydroxy-6-methyloxan-2-yl]oxy-13-ethyl-2,4,6,8,10,14-hexamethyl-6-[(E)-3-quinolin-3-ylprop-2-enoxy]-12,15-dioxa-17-azabicyclo[12.3.0]heptadecane-3,9,11,16-tetrone] | active | measurable inhibitory effect; also recorded: active |  |  | safety in humans [1]: used safely; inhibition of liver parasites in mice (P. berghei sporozoites [2]; 12 mg/kg, oral gavage): about 16%; reduction of parasite load in mouse liver (P. berghei sporozoites [2]; 50 mg/kg, oral gavage, one dose, liver 40 hours post-infection): 60%; effect on parasite load in mice (in words) (P. berghei sporozoites [2]; cethromycin 12 mg/kg): only partially effective; inhibition of liver stage malaria in vitro (reduction of parasite growth) (P. berghei sporozoites [3]; 20 μM, Hepa1-6 cells): 54%; inhibition at 20 µM (P. berghei sporozoites [3]; Plasmodium berghei, Hepa1-6, 20 μM, Hepa1-6 cells, read-out: inhibition of liver stage malaria in vitro (reduction of parasite growth)): 52% |
| O=C(COC(=O)c1cccnc1SCC(=O)Nc1cc(S(=O)(=O)N2CCOCC2)ccc1Cl)Nc1cc(S(=O)(=O)N2CCOCC2)ccc1Cl [T0507-9950, [2-(2-chloro-5-morpholin-4-ylsulfonylanilino)-2-oxoethyl] 2-[2-(2-chloro-5-morpholin-4-ylsulfonylanilino)-2-oxoethyl]sulfanylpyridine-3-carboxylate] |  | measurable inhibitory effect | significant inhibitory effect | without causing any notable side effects |  |
| O=C(/C=C/c1ccc(Cl)cc1Cl)Nc1cc(S(=O)(=O)N2CCCCC2)ccc1Cl [T0510-7064, (E)-N-(2-chloro-5-piperidin-1-ylsulfonylphenyl)-3-(2,4-dichlorophenyl)prop-2-enamide] |  | measurable inhibitory effect | significant inhibitory effect | without causing any notable side effects | reduction of parasite multiplication / growth in vitro (P. berghei sporozoites [3]; Hepa1-6 cells): 54% |
| CCN(CC)S(=O)(=O)c1cccc(-c2nnc(SC(C)C(=O)Nc3ccc(C)c(S(=O)(=O)N(CC)CC)c3)n2Cc2ccccc2)c1 (stereo not drawn) [T5531873, 2-[[4-benzyl-5-[3-(diethylsulfamoyl)phenyl]-1,2,4-triazol-3-yl]sulfanyl]-N-[3-(diethylsulfamoyl)-4-methylphenyl]propanamide] |  | measurable inhibitory effect | significant inhibitory effect | without causing any notable side effects | reduction of parasite multiplication / growth in vitro (P. berghei sporozoites [3]; Hepa1-6 cells): over 95%; inhibition of liver stage malaria in vitro (P. berghei sporozoites [3]; FIG. 3, concentration not given): ~95% |
| CC[C@H]1OC(=O)[C@H](C)[C@@H](O[C@H]2C[C@@](C)(OC)[C@@H](O)[C@H](C)O2)[C@H](C)[C@@H](O[C@@H]2O[C@H](C)C[C@H](N(C)C)[C@H]2O)[C@](C)(O)C[C@@H](C)C(=O)[C@H](C)[C@@H](O)[C@]1(C)O [erythromycin] | only marginal inhibitory effect; also recorded: no activity | Neither quinoline, nor erythromycin, nor their combination showed any parasite inhibition; also recorded: inactive; also recorded: no activity |  |  |  |
| CC[C@@]1([C@@H]2O[C@@H]([C@H]3O[C@@](O)(CO)[C@H](C)C[C@@H]3C)C[C@@H]2C)CC[C@H]([C@]2(C)CC[C@]3(C[C@H](O)[C@@H](C)[C@@H]([C@@H](C)[C@@H](OC)[C@H](C)C(=O)O)O3)O2)O1 [monensin] |  |  |  |  | IC50 (Plasmodium): 1 pM |
| COc1cc(NC(C)CCCN)c2ncccc2c1 (stereo not drawn) [primaquine] |  |  |  |  | inhibition of liver parasites in mice (P. berghei sporozoites [2]; primaquine 15 mg/kg, oral gavage): 83% |
| c1ccc2ncccc2c1 [quinoline] | only marginal inhibitory effect; also recorded: no activity | Neither quinoline, nor erythromycin, nor their combination showed any parasite inhibition; also recorded: inactive; also recorded: no activity |  |  | effect on parasite growth in mice (in words) (P. berghei sporozoites [2]; oral gavage, listed as quinolone): only marginal effect |
